Inconclusive results are not listed.

Consider 51 compounds from PubChem BioAssay AID449762 (Southern Research Specialized Biocontainment Screening …, 2010).

The subject of this assay is M. tuberculosis H37Rv growth inhibition, 7H9 media. Nature of the assay: M. tuberculosis growth inhibition, HTS (AID 449762).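 On all read-outs here: bacterial growth assessed after seven days of incubation.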 To be noted: for IC90: measured here: IC90 growth inhibition.

For `CC(C)=N/N=C1/NC(=O)C(Cc2ccccc2)S1` (stereo unspecified), the IC50 is 23.4 µM and the IC90 came to 25.9 µM.
For `Cc1ccc(CNc2ccc3c(c2)ncn3C(C)(C)C)cc1` the same measures were 7.41 µM and 14.8 µM.
Take `N/C(=N\OC(=O)Nc1ccc(Cl)c(Cl)c1)c1ncc(C(F)(F)F)cc1Cl`: the IC50 is 41.9 µM and the IC90 was determined as 45.8 µM.
For the compound `Cc1ccc2cc(C)c(N3CCN(c4ccccn4)CC3)nc2c1`, the IC50 was 29.7 µM and the concentration for an effect of 90% (IC90) turned out to be 46.3 µM.
Take `c1ccc(Cn2c3ccccc3c3nnc(SCCN4CCCCC4)nc32)cc1`: the IC50 was 21.3 µM and the IC90 stood at 34.5 µM.
For `Cc1ccc(C(=O)O/N=C(\N)c2ccc(Br)cc2)cc1C`, the IC50 was 98.9 µM and the 90% effect concentration (IC90) is over 100 µM.
For `CC(/C=C/C=C/c1ccccc1)=N\NC(=O)c1cccnc1` the same measures were 91.8 µM and over 100 µM.
With `C=CCn1c(O)c(N=Nc2ccccc2O)c2ccccc21`, the IC50 was 6.1 µM and the 90% effect concentration (IC90) came to 24.3 µM.
For `CC1CCCC(C)N1C(=O)COC(=O)c1cc(-c2cccs2)nn1-c1ccccc1` (stereo unspecified) the same measures were 24.5 µM and 55.6 µM.
`CCCCCCCC(=O)N/N=C(/C)c1c(O)cc(C)oc1=O` returned an IC90 of over 100 µM.
Consider `Cc1ccc(C2(c3ccc(C)cc3)CC2C(=O)Nc2ccc([N+](=O)[O-])cc2O)cc1` (stereo unspecified), for which the IC50 was 19.7 µM and the IC90 worked out at 27.1 µM.
Taken in the same sequence, the figures for `CCCc1cc(NC(=O)CCl)n(-c2ccccc2)n1` were 0.7 µM and 2.29 µM.
For the compound `C#CCOCCOCCOCCNc1nc(N2CCN(C(=O)CCCCCCCCCCNC(=O)[C@H](CCCCN)n3cc(CCCC(=O)O)nn3)CC2)nc(N2CCN(C(=O)CCCCCCCCCCNC(=O)[C@H](CCCN=C(N)N)n3cc(C[C@@H](C)CC)nn3)CC2)n1`, the concentration for half-maximal inhibition (IC50) is 4.78 µM and the IC90 worked out at 5.97 µM.
For `Cn1cnc(Sc2ncnc3nc[nH]c23)c1[N+](=O)[O-]`, the IC50 is 9.85 µM and the IC90 is 17 µM.
With `COc1cc(/C=N/n2c(-c3ccc4c(c3)NC(=O)CO4)csc2=Nc2cccc(C)c2)ccc1O`, the IC50 is 34 µM and the IC90 was over 100 µM.
Take `CC(C)Oc1ccc(-c2nc(NCC3CCCO3)c3ccccc3n2)cc1` (stereo unspecified): the IC50 is 68 µM and the IC90 is 91.3 µM.
For `COc1cccc(COC(=O)c2ccc3c(=O)n4c(nc3c2)CCC4)c1OC`, the IC50 is 21.1 µM and the IC90 is 50.6 µM.
Regarding `C=CCS/C(N)=N\N=C\c1c(O)ccc2ccccc12`, the IC50 was 12.2 µM and the IC90 came out at 48.6 µM.
`CCOc1cc(CNCCCN2CCOCC2)cc(Br)c1OCC(=O)Nc1cccc(C(F)(F)F)c1`: the IC50 is 22.1 µM and the IC90 amounted to 31.7 µM.
For `CC(=O)n1cc(N(C(=O)CCl)c2ccc(Cl)cc2)c2ccccc21` the same measures were 1.82 µM and 3.99 µM.
As for `NC(N)=Nc1nc(-c2ccccc2)c2ccccc2n1`, the IC50 is 68 µM and the IC90 was 87.9 µM.
Taken in the same sequence, the figures for `CN1CCN(c2ccc(S(=O)(=O)N3CCCCC3)cc2NC(=O)/C=C/c2ccc(Cl)c([N+](=O)[O-])c2)CC1` were 30.4 µM and 38.7 µM.
For `C=CCOc1ccc(C2=NOC(C(=O)Nc3ccc4c(c3)OCCO4)C2)cc1` (stereo unspecified) the same measures were 12.8 µM and 23.1 µM.
In the case of `COc1ccc(C(C(O)C(=O)c2c[nH]c3ccccc23)N2CCN(c3ccc(OC)cc3)CC2)cc1` (stereo unspecified), the IC50 was 100 µM and the IC90 was over 100 µM.
Consider `C#CCOC(=O)/C(=C/C=C/c1ccccc1)NC(=O)c1ccccc1`, for which the IC50 was 3.82 µM and the IC90 came to 43.3 µM.
`COC(=O)[C@@H](NC(=O)c1cc(COc2cncc(Cl)c2)on1)c1ccccc1`: the IC50 is 1.19 µM and the IC90 was 3.97 µM.
As for `CCCCOc1ccc(C(=O)N/N=C/c2ccc(OCCN3CCCCC3)c(OC)c2)cc1`, the IC50 was 28.8 µM and the IC90 came to 44.6 µM.
Consider `C(=N\Nc1nc(-c2ccccc2)cs1)/c1ccncc1`, for which the concentration for half-maximal inhibition (IC50) was 47.3 µM and the IC90 came to 66.4 µM.
Taken in the same sequence, the figures for `c1nc2n(n1)C1=C(CCCC1)C1(CCCCC1)N2` were 10.2 µM and 30 µM.
For `CCOc1ccc(NC(=S)Nc2cc(-c3ccccc3)[nH]n2)cc1`, the IC50 is 92.6 µM and the IC90 is over 100 µM.
In the case of `CCOc1ccc(N/C(C)=C/C(=O)c2ccc3c(c2)OCCO3)cc1`, the IC50 was 11.6 µM and the IC90 stood at 47.2 µM.
With `COc1ccc(C(=O)OCC(=O)c2ccc(Br)s2)c(OC)c1`, the concentration for half-maximal inhibition (IC50) is 26 µM and the 90% effect concentration (IC90) is over 100 µM.
As to `CSc1ccc(NC(=O)Nc2cccn(Cc3ccccc3)c2=O)cc1`, the IC50 is 18.5 µM and the IC90 was over 100 µM.
Turning to `Cc1ccc(C)c(NNC(N)=S)c1`, the IC50 is 6.39 µM and the IC90 turned out to be 15.6 µM.
Take `N#CCCN(C(=O)COC(=O)CCc1c[nH]c2ccccc12)c1ccc(F)cc1`: the IC50 is 30.7 µM and the IC90 amounted to 70.8 µM.
For `CC(C)(O)[C@H]1O[C@H]2CC[C@@]3(C)[C@@](O)(CC[C@H]4Cc5c([nH]c6ccccc56)[C@@]43C)C2=CC1=O` the same measures were 42.2 µM and 63.9 µM.
For `N#Cc1cccc2c1-c1ccccc1/C2=N/NC(N)=O` the same measures were 93.9 µM and over 100 µM.
Taken in the same sequence, the figures for `CCOC(=O)C1CCCc2c1[nH]c1c(C(N)=O)cccc21` (stereo unspecified) were 4.13 µM and 13.2 µM.
As for `CCN(Cc1ccccc1)c1ccc(/C=N/N=C(N)N)cc1`, the concentration for half-maximal inhibition (IC50) is 17.1 µM and the IC90 came out at 30.1 µM.
On to `CCCC(=O)OCCNc1cc(SCCC(=O)OC)c2nonc2c1[N+](=O)[O-]`, for which the IC50 is 1.49 µM and the IC90 stood at 5.7 µM.
With `C#CCn1c(=NC(=O)c2cc(Cl)sc2Cl)sc2cc(S(N)(=O)=O)ccc21`, the IC50 is 3.37 µM and the IC90 is over 100 µM.
For the compound `NC(=S)N/N=C/c1ccc(-c2ccccc2)o1`, the IC50 was 48.8 µM and the IC90 came out at 75 µM.
In the case of `CCc1nnc(NC(=O)CN2CCN(c3nc(-c4ccccc4)cs3)CC2)s1`, the IC50 is 45.8 µM and the IC90 stood at 52.4 µM.
`S=c1nc2ccccc2c2nc(-c3ccccc3)[nH]n12`: the IC50 is 10.4 µM and the concentration for an effect of 90% (IC90) came to 14.6 µM.
In the case of `Cc1cccc(N2CCN(CCCNC(=O)c3ccc(NC(=O)C4=CSCCO4)cc3)CC2C)c1` (stereo unspecified), the IC50 is 19.7 µM and the IC90 amounted to 29.2 µM.
With `Cc1ccc2[nH]c(C(=O)NN=C3CCCCC3)c(-c3ccccc3)c2c1`, the IC50 was 29 µM and the IC90 was found to be 56.6 µM.
On to `Cc1[nH][nH]c(=O)c1C(c1ccc(-c2ccc(Cl)c(Cl)c2)o1)c1c(C)[nH][nH]c1=O`, for which the IC50 is 53.4 µM and the IC90 came to 85.6 µM.
Regarding `Cc1ccc(-n2nc3c(N4CCC(C(=O)NCc5ccccc5C)CC4)nnc(C)c3c2C)cc1`, the IC50 was 46.9 µM and the IC90 was 69 µM.
On to `COC(=O)[C@H](CCSC)NC(=O)N1CCN(c2cccc(C(F)(F)F)c2)CC1`, for which the IC50 is 14.4 µM and the IC90 worked out at 40.5 µM.
As for `CCCCCc1nc2c(c(=O)c3ccccc3n2C)c(=O)n1C1CCCCCC1`, the IC50 was 30 µM and the IC90 is over 100 µM.
For `CCN(CC)c1ccc(N)cc1` the same measures were 7.15 µM and 9.95 µM.
